The values that follow come from publication PMC11859236, “A Sequential Ultrafiltration Method to Enhance the Accuracy and Throughput in Plasma Protein Binding Tests” (Pharmaceutics, 2025).

The conditions of data set [1]: cited from earlier work.
The test system of data set [2] is plasma proteins. As to the kind of experiment: Mass balance UF, plasma protein binding. To be noted: for Plasma protein binding (%): Mass balance UF, rat plasma, mean (±SD). The procedure: Washing procedures were performed in accordance with established methods for conventional ultrafiltration. Further procedures were conducted as per the protocols outlined by Wang and Williams. […] Following centrifugation, the filter was carefully detached from the FT tube, and the filtrate was removed. The filter was then inverted and transferred to a new retentate collection tube (RT tube), where it underwent a second centrifugation at 1000× g for 2 min at 25 °C. The retentate was subsequently extracted from the RT tube (Figure 2A).
In this equation, CR and VR represent the concentration and volume of the retentate obtained from the final RT tube, while CF and VF denote the concentration and volume of the filtrate collected from the FT tube.

Data set [3] has as its system plasma proteins. As to the kind of experiment: Sequential UF, plasma protein binding. The note with it: for Plasma protein binding (%): Sequential UF, rat plasma, mean (±SD).
Protocol: (§1) Rat plasma was collected from male Sprague Dawley rats purchased from Orient Bio Inc. (Seongnam, Republic of Korea). The plasma was separated from whole blood samples using centrifugation and was utilized immediately for the PPB test.
(§2) All compounds, with the exception of otaplimastat and ciclopirox, were added to 1 mL of blank plasma to achieve a drug concentration of 10 μM. Otaplimastat and ciclopirox were examined at concentrations of 5 μM and 1 μg/mL, respectively. The compound-added plasma samples were incubated in a water bath at 37 °C and agitated at 50 rpm for two hours prior to the PPB test.
(§3) A volume of 0.5 mL of the plasma sample was initially loaded onto the filter within the FT tube. The tube was then subjected to centrifugation at 14,000× g for 2 min at a temperature of 25 °C, serving as the pre-ultrafiltration (pre-UF) step.
(§4) The bound and unbound plasma fractions were subjected to linear regression analysis, with the regression line established by constraining the y-intercept to zero [14].
Data set [4] deals with plasma proteins. The note with it: male, Sprague Dawley, rat, 2 h, 10 μM.
Protocol: as §1, §2, §3, §4
Data set [5] has as its system plasma proteins. In words: Conventional UF with NSB correction using PBS, plasma protein binding. Format: in vitro ADME. To be noted: male, Sprague Dawley, rat plasma, conventional UF with NSB correction by PBS, mean ± SD, read-out: percentage of PPB (converted). The procedure:
The device used in the experiment was Amicon® Ultra, which is commonly used in UF experiments. UF was conducted following the manufacturer's user guide. Briefly, the centrifugal filter units were washed once with 0.1N NaOH and then twice with double-distilled water by centrifugation at 14,000× g for 15 min. […] The exact process was performed using phosphate-buffered saline (PBS) instead of plasma to obtain a filtrate solution for correction with PBS [13]. […] In this equation, CSB indicates the concentration of the buffer sample, while CFB signifies the concentration of the filtrate sample derived from ultrafiltration using the buffer.

For data set [6], the system named is plasma proteins. Further details: method as in PMID 11709325. The note with it: equilibrium dialysis; cited from earlier work. For orientation: In equilibrium dialysis free small molecules cross a membrane that holds back macromolecules.
The subject of data set [7] is plasma proteins. As to the kind of experiment: Conventional UF without NSB correction, plasma protein binding. It is filed as in vitro ADME, rat. The note with it: male, Sprague Dawley. The method, then: The device used in the experiment was Amicon® Ultra, which is commonly used in UF experiments. UF was conducted following the manufacturer's user guide. Briefly, the centrifugal filter units were washed once with 0.1N NaOH and then twice with double-distilled water by centrifugation at 14,000× g for 15 min. […] The exact process was performed using phosphate-buffered saline (PBS) instead of plasma to obtain a filtrate solution for correction with PBS [13].

The next data set is described as follows: Log p (lipophilicity). It is filed as physicochemical. The note with it: in-house unpublished data. An excerpt: Table 2 Log p value of the test compounds. | column: Log p
The mark [8] stands for this setting: male, Sprague Dawley, rat, plasma.

Counter-ions that a name gives are not always drawn. Like-named read-outs stand apart in the source and are kept apart here.

Regarding `CCc1c2c(nc3ccc(O)cc13)-c1cc3c(c(=O)n1C2)COC(=O)[C@]3(O)CC` [SN-38], the Log p in data set [1] is recorded as 2.31. Further, the results for the “Plasma protein binding (%)” value with plasma proteins [2] (10 μM) and in the data set on plasma proteins [3] (10 μM) were 95.69 (±1.58) % and 95.47 (±0.88) %, respectively.
For `Cc1cc(C2CCCCC2)n(O)c(=O)c1` [Ciclopirox], the Log p in data set [1] is 2.73. Moreover, the fraction unbound at 2 h, 1 μg/mL in the data set with plasma proteins [2] (setting [8]) was 0.0285; in the data set on plasma proteins [3] (setting [8]), 0.0129.
For `O=c1c(O)c(-c2ccc(O)c(O)c2)oc2cc(O)cc(O)c12` [Quercetin, quercetin], the Log p in data set [1] is reported as 1.82. Also, the “difference between CR and CF (retentate and filtrate concentration)” value with plasma proteins [2] (male, Sprague Dawley, rat, 2 h, 10 μM) turned out to be 1000 fold. In addition, the fraction unbound at 2 h, 10 μM with plasma proteins [2] (setting [8]) is 0.0039; in the data set with plasma proteins [3] (setting [8]), 0.0008. Further, in the data set with plasma proteins [4], the “absolute difference in PPB between sequential UF and mass balance UF” value is 0.31%.
As for `COC(=O)c1ccccc1-c1c2ccc(=N)cc-2oc2cc(N)ccc12` [Rhodamine 123, rhodamine 123], the Log p in data set [1] is listed as 1.06. Also, the fraction unbound at 2 h, 10 μM was 0.33 in the data set on plasma proteins [5]; 0.3 in the data set with plasma proteins [2] (setting [8]); 0.103 with plasma proteins [7] (rat plasma, conventional UF without NSB correction, mean ± SD, read-out: percentage of PPB (converted)); 0.25 in the data set with plasma proteins [3] (setting [8]). The “protein binding, literature value” in the data set with plasma proteins [6] was 70%. Also, the “excess of PPB by conventional UF without NSB correction over PPB with NSB correction using PBS” value in the data set on plasma proteins [7] (rat, 2 h, 10 μM) stood at 22.6%.
In the case of `CCc1c2c(nc3ccc(OC(=O)N4CCC(N5CCCCC5)CC4)cc13)-c1cc3c(c(=O)n1C2)COC(=O)[C@]3(O)CC` [Irinotecan, irinotecan hydrochloride], in data set [1], the Log p was 4.18.
Turning to `CC(=O)N(CCCCNCCCn1c(=O)[nH]c2ccccc2c1=O)CCCn1c(=O)[nH]c2ccccc2c1=O` [Otaplimastat], the Log p in “Log p (lipophilicity)” was found to be 2.67. In addition, the entries for the “Plasma protein binding (%)” value with plasma proteins [2] (5 μM) and in the data set on plasma proteins [3] (5 μM) were 50.63 (±11.71) % and 57.61 (±3.39) %, respectively.
